Assay results reported in ChEMBL document CHEMBL1909046, “DrugMatrix in vitro pharmacology data”.

Key:
[1] = molecular target: T1, Leukotriene C4 synthase (Cavia porcellus, UniProt A6XA80); assay: biochemical; type: tissue-based, Lung;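 note: enzyme inhibition assay of leukotriene C4 synthase, using LTA4 as the substrate; in other assays of this panel Not Active means under 50% inhibition at 10 µM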
T1 sequence (A6XA80 whole entry): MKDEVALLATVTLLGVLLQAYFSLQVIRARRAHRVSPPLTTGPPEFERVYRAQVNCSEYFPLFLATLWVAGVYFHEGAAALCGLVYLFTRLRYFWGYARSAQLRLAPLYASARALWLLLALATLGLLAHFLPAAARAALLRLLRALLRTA

[2] = DRUGMATRIX: Glutamate, NMDA, Phencyclidine radioligand binding (ligand: [3H] TCP); type: cell membranes, Rattus norvegicus, Wistar, Cerebral cortex, Membrane; settings: Not Active = under 50% inhibition at 10 µM
[3] = molecular target: T2, Substance-K receptor (Homo sapiens, UniProt P21452); type: cell membranes, CHO, Membrane; settings: cho; note: in other assays of this panel Not Active means under 50% inhibition at 10 µM
T2 sequence (P21452 whole entry): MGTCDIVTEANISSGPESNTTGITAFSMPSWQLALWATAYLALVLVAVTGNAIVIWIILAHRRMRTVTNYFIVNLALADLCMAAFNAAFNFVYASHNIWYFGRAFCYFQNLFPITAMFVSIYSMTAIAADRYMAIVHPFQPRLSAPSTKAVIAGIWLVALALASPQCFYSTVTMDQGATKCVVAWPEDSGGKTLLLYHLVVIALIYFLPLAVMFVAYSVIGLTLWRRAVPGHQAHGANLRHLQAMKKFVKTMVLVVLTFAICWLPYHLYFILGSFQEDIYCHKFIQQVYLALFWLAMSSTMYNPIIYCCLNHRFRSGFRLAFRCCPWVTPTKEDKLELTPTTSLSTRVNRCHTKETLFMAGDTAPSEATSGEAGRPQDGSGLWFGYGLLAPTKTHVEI

[4] = molecular target: T3, Muscarinic acetylcholine receptor M4 (Homo sapiens, UniProt P08173); type: cell membranes, CHO-K1, Membrane; settings: cho-k1; note: in other assays of this panel Not Active means under 50% inhibition at 10 µM
T3 sequence (P08173 whole entry): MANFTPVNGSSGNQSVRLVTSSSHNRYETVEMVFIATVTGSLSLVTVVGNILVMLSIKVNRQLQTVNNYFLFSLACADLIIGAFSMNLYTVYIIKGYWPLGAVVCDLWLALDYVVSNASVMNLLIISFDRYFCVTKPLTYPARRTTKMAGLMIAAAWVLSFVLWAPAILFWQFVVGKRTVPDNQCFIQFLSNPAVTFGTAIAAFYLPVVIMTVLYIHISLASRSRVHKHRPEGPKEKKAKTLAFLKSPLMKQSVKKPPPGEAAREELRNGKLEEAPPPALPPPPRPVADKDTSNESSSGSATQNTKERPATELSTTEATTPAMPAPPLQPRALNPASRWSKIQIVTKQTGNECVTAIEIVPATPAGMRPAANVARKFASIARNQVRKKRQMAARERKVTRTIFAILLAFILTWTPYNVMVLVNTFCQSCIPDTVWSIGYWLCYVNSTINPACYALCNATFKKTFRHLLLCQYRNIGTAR

[5] = DRUGMATRIX: Sigma2 radioligand binding (ligand: [3H] Ifenprodil); type: cell membranes, Rattus norvegicus, Wistar, Brain, Membrane; settings: Not Active = under 50% inhibition at 10 µM
[6] = DRUGMATRIX: Purinergic P2X radioligand binding (ligand: [3H] alpha, beta-Methylene-ATP); type: cell membranes, Oryctolagus cuniculus, New Zealand albino, Urinary bladder, Membrane; settings: Not Active = under 50% inhibition at 10 µM
[7] = molecular target: Beta-3 adrenergic receptor (Homo sapiens, UniProt P13945); assay: DRUGMATRIX: Adrenergic beta3 radioligand binding (ligand: [125I] Cyanopindolol); type: cell membranes, HEK293, Membrane; settings: hek293; Not Active = under 50% inhibition at 10 µM
[8] = molecular target: T4, C-C chemokine receptor type 4 (Homo sapiens, UniProt P51679); type: cell membranes, Membrane; settings: chem-1; note: in other assays of this panel Not Active means under 50% inhibition at 10 µM
T4 sequence (P51679 whole entry): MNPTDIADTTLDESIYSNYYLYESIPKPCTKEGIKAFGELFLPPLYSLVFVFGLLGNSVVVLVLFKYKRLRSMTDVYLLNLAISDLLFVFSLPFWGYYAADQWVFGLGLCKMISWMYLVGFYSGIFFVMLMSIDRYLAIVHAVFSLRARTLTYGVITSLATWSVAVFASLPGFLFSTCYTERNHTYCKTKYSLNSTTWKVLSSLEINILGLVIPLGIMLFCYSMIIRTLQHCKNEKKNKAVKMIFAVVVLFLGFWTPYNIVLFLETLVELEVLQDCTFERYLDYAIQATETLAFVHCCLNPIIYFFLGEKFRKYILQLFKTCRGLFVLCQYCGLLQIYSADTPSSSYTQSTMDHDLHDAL

[9] = molecular target: T5, D(4) dopamine receptor (Homo sapiens, UniProt P21917); assay: DRUGMATRIX: Dopamine D4.2 radioligand binding (ligand: [3H] Spiperone); type: cell membranes, CHO-K1, Membrane; settings: cho-k1; Not Active = under 50% inhibition at 10 µM
T5 sequence (P21917 whole entry): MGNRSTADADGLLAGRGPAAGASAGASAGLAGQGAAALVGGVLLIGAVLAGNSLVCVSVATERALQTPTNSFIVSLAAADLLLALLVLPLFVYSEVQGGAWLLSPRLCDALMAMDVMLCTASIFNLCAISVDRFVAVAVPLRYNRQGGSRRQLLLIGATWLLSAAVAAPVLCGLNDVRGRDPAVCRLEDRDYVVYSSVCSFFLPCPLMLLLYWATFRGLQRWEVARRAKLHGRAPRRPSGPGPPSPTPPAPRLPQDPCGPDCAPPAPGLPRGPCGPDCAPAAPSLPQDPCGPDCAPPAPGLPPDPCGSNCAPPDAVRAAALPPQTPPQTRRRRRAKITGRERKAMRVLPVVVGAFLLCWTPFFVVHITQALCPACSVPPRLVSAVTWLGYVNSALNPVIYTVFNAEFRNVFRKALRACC

[10] = molecular target: 5-hydroxytryptamine receptor 4 (Cavia porcellus, UniProt O70528); type: cell membranes, Dunkin-Hartley, Striatum, Membrane; note: in other assays of this panel Not Active means under 50% inhibition at 10 µM
[11] = molecular target: Tyrosine-protein kinase Fyn (Homo sapiens, UniProt P06241); assay: biochemical; type: cell-based, Insect cells; settings: insect cells
[12] = molecular target: Sodium-dependent dopamine transporter (Homo sapiens, UniProt Q01959); assay: DRUGMATRIX: Dopamine Transporter radioligand binding (ligand: [125I] RTI-55); type: cell membranes, CHO-K1, Membrane; settings: cho-k1; Not Active = under 50% inhibition at 10 µM
[13] = DRUGMATRIX: Glutamate, Kainate radioligand binding (ligand: [3H] Kainic acid); type: cell membranes, Rattus norvegicus, Wistar, Brain, Membrane; settings: Not Active = under 50% inhibition at 10 µM
[14] = molecular target: Cytochrome P450 2C19 (Homo sapiens, UniProt P33261); settings: bti-tn-5b1-4; note: in other assays of this panel Not Active means under 50% inhibition at 10 µM
[15] = molecular target: C-C chemokine receptor type 2 (Homo sapiens, UniProt P41597); type: cell membranes, CHO-K1, Membrane; settings: cho-k1; note: in other assays of this panel Not Active means under 50% inhibition at 10 µM
[16] = DRUGMATRIX: Phosphodiesterase PDE3 enzyme inhibition (substrate: [3H]cAMP + cAMP); type: tissue-based, Homo sapiens; settings: platelet; Not Active = under 50% inhibition at 10 µM
[17] = molecular target: Histamine H2 receptor (Homo sapiens, UniProt P25021); type: cell membranes, CHO-K1, Membrane; settings: cho-k1; note: in other assays of this panel Not Active means under 50% inhibition at 10 µM
Sequence of Histamine H2 receptor (P25021 whole entry): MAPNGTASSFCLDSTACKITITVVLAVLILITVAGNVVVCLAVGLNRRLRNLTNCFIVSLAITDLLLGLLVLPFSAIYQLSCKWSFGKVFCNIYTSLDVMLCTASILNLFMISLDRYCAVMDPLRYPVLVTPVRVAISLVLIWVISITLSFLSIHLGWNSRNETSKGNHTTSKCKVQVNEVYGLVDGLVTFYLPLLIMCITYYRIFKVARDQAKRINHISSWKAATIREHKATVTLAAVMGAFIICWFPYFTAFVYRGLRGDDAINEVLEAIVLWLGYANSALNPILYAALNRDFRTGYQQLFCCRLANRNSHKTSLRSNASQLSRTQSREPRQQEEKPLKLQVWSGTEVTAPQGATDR

Sequence of Cytochrome P450 2C19 (P33261 whole entry): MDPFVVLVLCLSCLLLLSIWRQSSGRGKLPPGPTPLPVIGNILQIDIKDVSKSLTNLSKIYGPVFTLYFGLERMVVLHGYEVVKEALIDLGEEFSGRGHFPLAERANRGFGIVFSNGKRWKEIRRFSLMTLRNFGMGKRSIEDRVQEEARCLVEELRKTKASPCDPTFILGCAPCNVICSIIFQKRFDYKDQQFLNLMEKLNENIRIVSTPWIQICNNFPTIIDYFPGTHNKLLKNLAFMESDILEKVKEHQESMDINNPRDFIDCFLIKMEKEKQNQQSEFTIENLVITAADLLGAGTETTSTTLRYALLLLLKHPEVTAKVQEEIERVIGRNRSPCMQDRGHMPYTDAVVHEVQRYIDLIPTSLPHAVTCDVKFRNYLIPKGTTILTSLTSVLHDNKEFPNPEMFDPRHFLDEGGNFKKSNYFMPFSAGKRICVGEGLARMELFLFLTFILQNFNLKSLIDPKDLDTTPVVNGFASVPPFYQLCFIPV
Sequence of Sodium-dependent dopamine transporter (Q01959 whole entry): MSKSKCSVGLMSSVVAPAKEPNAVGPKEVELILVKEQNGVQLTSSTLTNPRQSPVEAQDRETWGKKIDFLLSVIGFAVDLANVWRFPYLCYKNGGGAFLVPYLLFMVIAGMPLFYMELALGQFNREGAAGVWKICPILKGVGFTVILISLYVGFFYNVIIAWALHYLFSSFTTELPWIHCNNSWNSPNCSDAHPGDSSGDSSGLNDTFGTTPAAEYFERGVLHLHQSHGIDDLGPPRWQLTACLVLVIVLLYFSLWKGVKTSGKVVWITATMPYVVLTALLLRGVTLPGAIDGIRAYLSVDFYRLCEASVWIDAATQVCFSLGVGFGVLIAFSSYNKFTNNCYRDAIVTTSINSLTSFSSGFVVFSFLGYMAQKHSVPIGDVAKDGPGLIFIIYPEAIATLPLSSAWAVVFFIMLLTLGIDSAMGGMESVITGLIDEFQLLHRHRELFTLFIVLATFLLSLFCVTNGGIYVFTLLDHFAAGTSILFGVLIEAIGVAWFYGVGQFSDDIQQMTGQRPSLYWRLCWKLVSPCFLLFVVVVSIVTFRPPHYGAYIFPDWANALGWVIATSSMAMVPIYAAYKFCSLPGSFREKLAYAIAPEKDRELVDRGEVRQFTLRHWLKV
Sequence of Beta-3 adrenergic receptor (P13945 whole entry): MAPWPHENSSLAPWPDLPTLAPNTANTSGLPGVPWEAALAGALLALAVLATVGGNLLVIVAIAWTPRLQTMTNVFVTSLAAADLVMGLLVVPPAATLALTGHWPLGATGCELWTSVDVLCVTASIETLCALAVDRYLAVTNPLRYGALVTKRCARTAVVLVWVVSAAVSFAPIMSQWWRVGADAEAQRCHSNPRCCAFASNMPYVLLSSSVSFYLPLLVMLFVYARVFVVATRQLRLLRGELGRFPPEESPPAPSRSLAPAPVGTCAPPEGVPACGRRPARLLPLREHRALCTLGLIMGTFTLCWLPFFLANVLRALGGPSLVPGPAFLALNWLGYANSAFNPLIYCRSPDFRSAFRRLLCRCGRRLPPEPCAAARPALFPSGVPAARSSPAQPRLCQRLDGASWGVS
Sequence of 5-hydroxytryptamine receptor 4 (O70528 whole entry): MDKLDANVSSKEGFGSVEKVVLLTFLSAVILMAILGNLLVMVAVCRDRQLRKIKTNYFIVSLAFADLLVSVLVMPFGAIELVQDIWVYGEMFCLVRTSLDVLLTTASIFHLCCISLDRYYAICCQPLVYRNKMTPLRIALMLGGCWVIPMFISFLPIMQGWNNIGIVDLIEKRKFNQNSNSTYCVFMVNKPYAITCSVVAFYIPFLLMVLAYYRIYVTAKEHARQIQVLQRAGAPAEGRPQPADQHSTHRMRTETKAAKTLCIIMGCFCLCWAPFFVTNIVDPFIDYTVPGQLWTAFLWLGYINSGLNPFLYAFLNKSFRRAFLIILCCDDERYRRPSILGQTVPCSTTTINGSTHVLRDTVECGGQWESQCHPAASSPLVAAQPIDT
Sequence of C-C chemokine receptor type 2 (P41597 whole entry): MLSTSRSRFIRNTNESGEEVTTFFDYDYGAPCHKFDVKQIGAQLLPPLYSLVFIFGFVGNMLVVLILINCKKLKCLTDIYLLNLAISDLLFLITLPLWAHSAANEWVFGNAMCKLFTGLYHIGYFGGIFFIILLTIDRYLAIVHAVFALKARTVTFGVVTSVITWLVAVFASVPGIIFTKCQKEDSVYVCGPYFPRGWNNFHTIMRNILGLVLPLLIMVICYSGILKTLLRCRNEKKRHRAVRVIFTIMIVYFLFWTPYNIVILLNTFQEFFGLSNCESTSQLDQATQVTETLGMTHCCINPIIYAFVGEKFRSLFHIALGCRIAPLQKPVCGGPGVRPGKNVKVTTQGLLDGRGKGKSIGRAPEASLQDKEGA
Sequence of Tyrosine-protein kinase Fyn (P06241 whole entry): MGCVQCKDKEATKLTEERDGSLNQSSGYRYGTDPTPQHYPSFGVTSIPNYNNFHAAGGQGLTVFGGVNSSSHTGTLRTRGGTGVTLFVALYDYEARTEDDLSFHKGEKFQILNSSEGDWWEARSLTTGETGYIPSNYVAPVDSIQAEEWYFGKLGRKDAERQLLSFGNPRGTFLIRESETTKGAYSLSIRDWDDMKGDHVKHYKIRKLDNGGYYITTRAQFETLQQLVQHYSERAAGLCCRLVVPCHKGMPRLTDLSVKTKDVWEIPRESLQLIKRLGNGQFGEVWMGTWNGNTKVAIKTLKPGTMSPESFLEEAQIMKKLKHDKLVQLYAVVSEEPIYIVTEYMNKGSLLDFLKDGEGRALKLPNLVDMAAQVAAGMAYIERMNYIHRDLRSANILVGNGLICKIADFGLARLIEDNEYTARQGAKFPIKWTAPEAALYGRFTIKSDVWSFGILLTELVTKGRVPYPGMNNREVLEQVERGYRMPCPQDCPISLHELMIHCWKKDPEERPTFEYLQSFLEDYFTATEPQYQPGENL

O=c1[nH]cc(F)c(=O)[nH]1 [FLUOROURACIL]
Not Active: IC50 [1] | IC50 [2] | Ki [2] | IC50 [3] | IC50 [4] | IC50 [5] | Ki [5] | IC50 [6] | Ki [6] | IC50 [7] | IC50 [8] | IC50 [9] | IC50 [10] | IC50 [11] | IC50 [12] | IC50 [13] | Ki [13] | IC50 [14] | Ki [14] | IC50 [15] | IC50 [16] | Ki [16] | IC50 [17]

CC(C)n1c(/C=C/C(O)CC(O)CC(=O)O)c(-c2ccc(F)cc2)c2ccccc21 (stereo not given) [FLUVASTATIN]
Not Active: IC50 [1] | IC50 [2] | Ki [2] | IC50 [3] | IC50 [4] | IC50 [5] | Ki [5] | IC50 [6] | Ki [6] | IC50 [7] | IC50 [8] | IC50 [9] | IC50 [10] | IC50 [11] | IC50 [12] | IC50 [13] | Ki [13] | IC50 [14] | Ki [14] | IC50 [15] | IC50 [16] | Ki [16] | IC50 [17]

NCC1(CC(=O)O)CCCCC1 [GABAPENTIN]
Not Active: IC50 [1] | IC50 [2] | Ki [2] | IC50 [3] | IC50 [4] | IC50 [5] | Ki [5] | IC50 [6] | Ki [6] | IC50 [7] | IC50 [8] | IC50 [9] | IC50 [10] | IC50 [11] | IC50 [12] | IC50 [13] | Ki [13] | IC50 [14] | Ki [14] | IC50 [15] | IC50 [16] | Ki [16] | IC50 [17]

CC[N+](CC)(CC)CCOc1cccc(OCC[N+](CC)(CC)CC)c1OCC[N+](CC)(CC)CC.[I-].[I-].[I-] [GALLAMINE TRIETHIODIDE]
Not Active: IC50 [1] | IC50 [2] | Ki [2] | IC50 [3] | IC50 [4] | IC50 [5] | Ki [5] | IC50 [6] | Ki [6] | IC50 [7] | IC50 [8] | IC50 [9] | IC50 [10] | IC50 [11] | IC50 [12] | IC50 [13] | Ki [13] | IC50 [14] | Ki [14] | IC50 [15] | IC50 [16] | Ki [16] | IC50 [17]

Nc1nc2c(ncn2COC(CO)CO)c(=O)[nH]1 [GANCICLOVIR]
Not Active: IC50 [1] | IC50 [2] | Ki [2] | IC50 [3] | IC50 [4] | IC50 [5] | Ki [5] | IC50 [6] | Ki [6] | IC50 [7] | IC50 [8] | IC50 [9] | IC50 [10] | IC50 [11] | IC50 [12] | IC50 [13] | Ki [13] | IC50 [14] | Ki [14] | IC50 [15] | IC50 [16] | Ki [16] | IC50 [17]
